# In patent US20110028507A1, “PYRIDINE DERIVATIVES AND METHODS OF USE THEREOF” (CRYSTALGENOMICS, INC., priority 2007, published 2011):
# Columns and labels:
# HIF-PH2 (EGLN1) = target: T1, HIF-PH2 (EGLN1) (Homo sapiens, UniProt Q9GZT9); assay: HIF-PH2 (PHD2) assay (fluorescence polarization method); assay type: biochemical; conditions: 200 nM HIF PH2 enzyme, 50 nM peptide substrate, 30° C. one hour; read-out: IC50 (HIF PH2 inhibition activity)
# T1 construct: made in house; host or cells: E. coli
# Method: HIF-PH2 (EGLN1) was expressed from E. coli cells, and purified using two process: an Ni-affinity chromatography column and a size-exclusion chromatography column.
# To evaluate activities of an HIF PH2 inhibitor, HIF PH2 enzyme that was first overexpressed by genetic recombination and then purified was used to perform an enzyme reaction. […] At this time, 2 mM ascorbic acid and 5 mM ketoglutarate with 100 μM FeCl2 or without FeCl2, were used together with crude enzyme. A concentration of HIF PH2 inhibitor to be tested was treated and reacted at 30° C. for one hour. After the reaction, the resulting reaction product was boiled at 95° C. for one minute to suppress the enzyme reaction.
# To determine whether prolyl hydroxylation occurs in the substrate as the secondary reaction, 500 nM GST-VBC (GST-VHL-Elongin B-Elongin C) protein was added to a reaction buffer (50 mM Tris-Cl (pH8.0), 120 mM NaCl, 0.5% Nonidet P40), and a GST-VBC binding reaction was carried out at room temperature for 30 minutes.
# A fluorescence polarization value of a sample that is not treated with the HIF PH2 inhibitor was used as 100% control, and the activities of the HIF PH2 inhibitor were measured as percentage of the remaining HIF PH2 enzyme activity in samples treated with a concentration of the HIF PH2 inhibitor to be tested.
# EPO = assay: Human EPO immunoassay (ELISA of Hep3B culture media); assay type: cell-based; conditions: Hep3B cells, compound at 100 μM, 24-hour incubation; for EPO (mIU/ml): culture media ELISA; for fold induction at 100 µM: Homo sapiens, read-out: Fold Induction over control (EPO Induction)
# Method: Human cells derived from hepatocarcinoma (Hep3B) tissue (see, e.g., American Type Culture Collection, Manassas Va.) were grown at 37° C., 20% O2, 5% CO2 in DMEM (GIBCO)+10% FBS, 4.5 g/L D-Glucose; L-Glutamate and 110 mg/L sodium pyruvate. Ninety-six well plates were seeded with 4×10^4 HEP3B cells/well. The media was removed and replaced with DMEM+10% FBS. Compounds were added to wells at concentrations between 1 μM-100 μM for a 24-hour incubation. Cell culture media was harvested and EPO concentration was determined using a Human Erythropoietin Quantikine IVD ELISA Kit (R&D Systems®, Minneapolis, Minn.) following the manufacturer's instructions for the benchtop assay.
# T1 sequence (Q9GZT9 whole entry, species assumed): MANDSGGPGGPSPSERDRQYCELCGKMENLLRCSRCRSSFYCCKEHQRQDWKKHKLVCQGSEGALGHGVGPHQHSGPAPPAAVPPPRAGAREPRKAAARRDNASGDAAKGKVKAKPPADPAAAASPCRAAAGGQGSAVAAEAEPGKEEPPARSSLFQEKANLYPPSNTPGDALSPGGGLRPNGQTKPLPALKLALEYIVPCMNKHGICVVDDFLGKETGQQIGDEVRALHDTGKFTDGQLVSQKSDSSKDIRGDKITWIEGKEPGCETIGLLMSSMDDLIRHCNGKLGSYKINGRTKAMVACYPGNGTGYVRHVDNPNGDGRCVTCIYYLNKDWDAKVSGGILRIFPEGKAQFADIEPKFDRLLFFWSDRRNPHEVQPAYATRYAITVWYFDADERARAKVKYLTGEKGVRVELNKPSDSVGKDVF
Compound,IC50 (HIF-PH2 (EGLN1)),EPO (mIU/ml) (EPO),fold induction at 100 µM (EPO)
"O=C(O)CNC(=O)c1nc(Cl)c2c(sc3ccc(S(=O)(=O)Cc4ccccc4)cc32)c1O [[(1-Chloro-4-hydroxy-8-phenylmethanesulfonyl-benzo[4,5]thieno[3,2-c]pyridine-3-carbonyl)-amino]-acetic acid]",26 to 100 µM,,
"O=C(NCc1cccnc1)c1nc(Br)c2c(sc3ccccc32)c1O [1-Bromo-4-hydroxy-benzo[4,5]thieno[3,2-c]pyridine-3-carboxylic acid (pyridin-3-ylmethyl)-amide]",26 to 100 µM,,
"O=C(O)CN(O)C(=O)c1ncc2c(sc3ccccc32)c1O [[Hydroxy-(4-hydroxy-benzo[4,5]thieno[3,2-c]pyridine-3-carbonyl)-amino]-acetic acid]",101 to 200 µM,,
"COc1c(C(=O)NCC(=O)O)nc(Cl)c2c1sc1ccc(O)cc12 [[(1-Chloro-8-hydroxy-4-methoxy-benzo[4,5]thieno[3,2-c]pyridine-3-carbonyl)-amino]-acetic acid]",101 to 200 µM,,
"O=C(O)CNC(=O)c1ncc2ccoc2c1O [[(7-Hydroxy-furo[3,2-c]pyridine-6-carbonyl)-amino]-acetic acid]",> 201 µM,,
"O=C(O)CNC(=O)c1ncc2c(-c3ccccc3)coc2c1O [[(7-Hydroxy-3-phenyl-furo[3,2-c]pyridine-6-carbonyl)-amino]-acetic acid]",101 to 200 µM,,
"O=C(O)CNC(=O)c1nc(Cl)c2[nH]ccc2c1O [[(7-Chloro-4-hydroxy-1H-pyrrolo[2,3-c]pyridine-5-carbonyl)-amino]-acetic acid]",> 201 µM,,
"C[C@H](NC(=O)c1ncc2ccoc2c1O)C(=O)O [(S)-2-[(7-Hydroxy-furo[3,2-c]pyridine-6-carbonyl)-amino]-propionic acid]",> 201 µM,,
"Nc1c(C(=O)NCC(=O)O)nc(Br)c2c1sc1ccccc12 [[(4-Amino-1-bromo-benzo[4,5]thieno[3,2-c]pyridine-3-carbonyl)-amino]-acetic acid]",> 201 µM,,
"CCS(=O)(=O)c1ccc2sc3c(O)c(C(=O)NCC(=O)O)nc(Cl)c3c2c1 [[(1-Chloro-8-ethanesulfonyl-4-hydroxy-benzo[4,5]thieno[3,2-c]pyridine-3-carbonyl)-amino]-acetic acid]",26 to 100 µM,,
"Cc1nc(C(=O)NCC(=O)O)c(O)c2sc3ccccc3c12 [[(4-Hydroxy-1-methyl-benzo[4,5]thieno[3,2-c]pyridine-3-carbonyl)-amino]-acetic acid]",,J (J = 21-40 mIU/ml),> 71
"O=C(O)CNC(=O)c1ncc2c(sc3ccccc32)c1O [[(4-Hydroxy-benzo[4,5]thieno[3,2-c]pyridine-3-carbonyl)-amino]-acetic acid]",,I (I = 0-20 mIU/ml),< 20
"O=C(O)CNC(=O)c1ncc2c(oc3ccccc32)c1O [[(4-Hydroxy-benzo[4,5]furo[3,2-c]pyridine-3-carbonyl)-amino]-acetic acid]",,I (I = 0-20 mIU/ml),< 20
"COc1ccc2c(c1)sc1c(O)c(C(=O)NCC(=O)O)nc(Cl)c12 [[(1-Chloro-4-hydroxy-7-methoxy-benzo[4,5]thieno[3,2-c]pyridine-3-carbonyl)-amino]-acetic acid]",< 25 µM,I (I = 0-20 mIU/ml),21 to 50
"CC(C)Oc1c(C(=O)NCC(=O)O)nc(Cl)c2c1sc1ccc(O)cc12 [[(1-Chloro-8-hydroxy-4-isopropoxy-benzo[4,5]thieno[3,2-c]pyridine-3-carbonyl)-amino]-acetic acid]",101 to 200 µM,,
"O=C(O)CN(O)C(=O)c1ncc2c(sc3ccccc32)c1Cl [[(4-Chloro-benzo[4,5]thieno[3,2-c]pyridine-3-carbonyl)-hydroxy-amino]-acetic acid]",> 201 µM,,
"O=C(O)CNC(=O)c1nc(Cl)c2c(sc3ccc(NS(=O)(=O)c4ccccc4)cc32)c1O [[(8-Benzenesulfonylamino-1-chloro-4-hydroxy-benzo[4,5]thieno[3,2-c]pyridine-3-carbonyl)-amino]-acetic acid]",< 25 µM,I (I = 0-20 mIU/ml),< 20

# Now from value to compound, other results behind:
IC50 (HIF-PH2 (EGLN1)),Compound,EPO (mIU/ml) (EPO),fold induction at 100 µM (EPO)
< 25 µM,"CCN(CC)c1ccc2sc3c(O)c(C(=O)NCC(=O)O)nc(Cl)c3c2c1 [[(1-Chloro-8-diethylamino-4-hydroxy-benzo[4,5]thieno[3,2-c]pyridine-3-carbonyl)-amino]-acetic acid]",J (J = 21-40 mIU/ml),21 to 50
< 25 µM,"Cc1nc(C(=O)NCC(=O)O)c(O)c2sc3cc(F)ccc3c12 [[(7-Fluoro-4-hydroxy-1-methyl-benzo[4,5]thieno[3,2-c]pyridine-3-carbonyl)-amino]-acetic acid]",L (L = >61 mIU/ml),21 to 50
< 25 µM,"O=C(O)CNC(=O)c1nc(Cl)c2c(sc3ccc(C(F)(F)F)cc32)c1O [[(1-Chloro-4-hydroxy-8-trifluoromethyl-benzo[4,5]thieno[3,2-c]pyridine-3-carbonyl)-amino]-acetic acid]",J (J = 21-40 mIU/ml),21 to 50
< 25 µM,"O=C(O)CNC(=O)c1ncc2c(cnn2-c2ccccn2)c1O [[(4-Hydroxy-1-pyridin-2-yl-1H-pyrazolo[3,4-c]pyridine-5-carbonyl)-amino]-acetic acid]",I (I = 0-20 mIU/ml),< 20
< 25 µM,"O=C(O)CNC(=O)c1nc(Cl)c2c(sc3ccc(NCc4ccccc4)cc32)c1O [[(8-Benzylamino-1-chloro-4-hydroxy-benzo[4,5]thieno[3,2-c]pyridine-3-carbonyl)-amino]-acetic acid]",,
< 25 µM,"O=C(O)CNC(=O)c1nc(Br)c2c(sc3ccccc32)c1F [[(1-Bromo-4-fluoro-benzo[4,5]thieno[3,2-c]pyridine-3-carbonyl)-amino]-acetic acid]",,
< 25 µM,"COC(=O)CNC(=O)c1nc(Cl)c2c(ccn2S(=O)(=O)c2ccccc2)c1O [[(1-Benzenesulfonyl-7-chloro-4-hydroxy-1H-pyrrolo[2,3-c]pyridine-5-carbonyl)-amino]-acetic acid methyl ester]",,
< 25 µM,"CC(C)Oc1ccc2c(c1)sc1c(O)c(C(=O)NCC(=O)O)nc(Cl)c12 [[(1-Chloro-4-hydroxy-7-isopropoxy-benzo[4,5]thieno[3,2-c]pyridine-3-carbonyl)-amino]-acetic acid]",L (L = >61 mIU/ml),21 to 50
< 25 µM,"O=C(O)CNC(=O)c1nc(Cl)c2c(sc3ccc([S+]([O-])c4ccccc4)cc32)c1O (centres unmarked) [[(8-Benzenesulfinyl-1-chloro-4-hydroxy-benzo[4,5]thieno[3,2-c]pyridine-3-carbonyl)-amino]-acetic acid]",,
< 25 µM,"O=C(O)CNC(=O)c1nc(Cl)c2c(sc3cc(O)ccc32)c1O [[(1-Chloro-4,7-dihydroxy-benzo[4,5]thieno[3,2-c]pyridine-3-carbonyl)-amino]-acetic acid]",I (I = 0-20 mIU/ml),< 20
< 25 µM,"O=C(O)CNC(=O)c1nc(Cl)c2c(sc3ccc(O)cc32)c1O [[(1-Chloro-4,8-dihydroxy-benzo[4,5]thieno[3,2-c]pyridine-3-carbonyl)-amino]-acetic acid]",I (I = 0-20 mIU/ml),< 20
< 25 µM,"O=C(O)CNC(=O)c1nc(Cl)c2c(ccn2S(=O)(=O)c2ccccc2)c1O [[(1-Benzenesulfonyl-7-chloro-4-hydroxy-1H-pyrrolo[2,3-c]pyridine-5-carbonyl)-amino]-acetic acid]",I (I = 0-20 mIU/ml),< 20
< 25 µM,"O=C(O)CNC(=O)c1nc(Cl)c2c(sc3ccc(S(=O)(=O)c4ccccc4)cc32)c1O [[(8-Benzenesulfonyl-1-chloro-4-hydroxy-benzo[4,5]thieno[3,2-c]pyridine-3-carbonyl)-amino]-acetic acid]",,
< 25 µM,"CCNc1ccc2sc3c(O)c(C(=O)NCC(=O)O)nc(Cl)c3c2c1 [[(1-Chloro-8-ethylamino-4-hydroxy-benzo[4,5]thieno[3,2-c]pyridine-3-carbonyl)-amino]-acetic acid]",K (K = 41-60 mIU/ml),51 to 70
